Measured values as given in PubChem BioAssay (NCI).
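Assay format: 96-well plates, 48-hour exposure. TGI: concentration producing complete growth inhibition.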

Columns and labels:
Assay in all cases: inhibition of tumour cell growth, NCI panel, 48 h
786-0 renal = system: 786-0 renal
A498 renal = system: A498 renal
A549 NSCLC = system: A549 NSCLC
ACHN renal = system: ACHN renal
BT-549 breast = system: BT-549 breast
CAKI-1 renal = system: CAKI-1 renal
CCRF-CEM leukemia = system: CCRF-CEM leukemia
COLO 205 colon = system: COLO 205 colon
DU-145 prostate = system: DU-145 prostate
EKVX NSCLC = system: EKVX NSCLC
HCT-116 colon = system: HCT-116 colon
HCT-15 colon = system: HCT-15 colon
HL-60(TB) leukemia = system: HL-60(TB) leukemia
HOP-62 NSCLC = system: HOP-62 NSCLC
HOP-92 NSCLC = system: HOP-92 NSCLC
HS 578T breast = system: HS 578T breast
HT29 colon = system: HT29 colon
IGROV1 ovarian = system: IGROV1 ovarian
K-562 leukemia = system: K-562 leukemia
KM12 colon = system: KM12 colon
LOX IMVI melanoma = system: LOX IMVI melanoma
M14 melanoma = system: M14 melanoma
MALME-3M melanoma = system: MALME-3M melanoma
MCF7 breast = system: MCF7 breast
MDA-MB-231 breast = system: MDA-MB-231 breast
MDA-MB-435 = system: MDA-MB-435
MDA-N = system: MDA-N
MOLT-4 leukemia = system: MOLT-4 leukemia
NCI-H226 lung = system: NCI-H226 lung
NCI-H23 lung = system: NCI-H23 lung
NCI-H460 lung = system: NCI-H460 lung
NCI-H522 lung = system: NCI-H522 lung
NCI/ADR-RES ovarian = system: NCI/ADR-RES ovarian
OVCAR-3 ovarian = system: OVCAR-3 ovarian
OVCAR-4 ovarian = system: OVCAR-4 ovarian
OVCAR-5 ovarian = system: OVCAR-5 ovarian
OVCAR-8 ovarian = system: OVCAR-8 ovarian
PC-3 prostate = system: PC-3 prostate
RPMI-8226 leukemia = system: RPMI-8226 leukemia
RXF 393 renal = system: RXF 393 renal
SF-268 CNS = system: SF-268 CNS
SF-295 CNS = system: SF-295 CNS
SF-539 CNS = system: SF-539 CNS
SK-MEL-2 melanoma = system: SK-MEL-2 melanoma
SK-MEL-28 melanoma = system: SK-MEL-28 melanoma
SK-MEL-5 melanoma = system: SK-MEL-5 melanoma
SK-OV-3 ovarian = system: SK-OV-3 ovarian
SN12C renal = system: SN12C renal
SNB-19 CNS = system: SNB-19 CNS
SNB-75 CNS = system: SNB-75 CNS
SR leukemia = system: SR leukemia
SW-620 colon = system: SW-620 colon
T-47D breast = system: T-47D breast
TK-10 renal = system: TK-10 renal
U251 CNS = system: U251 CNS
UACC-257 melanoma = system: UACC-257 melanoma
UACC-62 melanoma = system: UACC-62 melanoma
UO-31 renal = system: UO-31 renal

O=[N+]([O-])c1ccc(S(=O)(=O)Cc2ccccc2)c2nonc12
TGI (786-0 renal): 37.5 µM | TGI (A498 renal): > 100 µM | TGI (A549 NSCLC): 83.8 µM | TGI (ACHN renal): 46.1 µM | TGI (BT-549 breast): 33.1 µM | TGI (CAKI-1 renal): 38.2 µM | TGI (CCRF-CEM leukemia): 67.8 µM | TGI (COLO 205 colon): 31.1 µM | TGI (DU-145 prostate): 36.3 µM | TGI (EKVX NSCLC): 41.8 µM | TGI (HCT-116 colon): 31.8 µM | TGI (HCT-15 colon): 51.7 µM | TGI (HL-60(TB) leukemia): 45.9 µM | TGI (HOP-62 NSCLC): 43.1 µM | TGI (HOP-92 NSCLC): 39.7 µM | TGI (HS 578T breast): 58.5 µM | TGI (HT29 colon): 36.7 µM | TGI (IGROV1 ovarian): 37.3 µM | TGI (K-562 leukemia): 76.7 µM | TGI (KM12 colon): 38.7 µM | TGI (LOX IMVI melanoma): 38.2 µM | TGI (M14 melanoma): 31.2 µM | TGI (MALME-3M melanoma): 33.4 µM | TGI (MCF7 breast): 43 µM | TGI (MDA-MB-231 breast): 50.7 µM | TGI (MDA-MB-435): 40.4 µM | TGI (MDA-N): 40.9 µM | TGI (MOLT-4 leukemia): 83.8 µM | TGI (NCI-H226 lung): > 100 µM | TGI (NCI-H23 lung): 35.5 µM | TGI (NCI-H460 lung): 37.8 µM | TGI (NCI-H522 lung): 38 µM | TGI (NCI/ADR-RES ovarian): 68 µM | TGI (OVCAR-3 ovarian): 37.2 µM | TGI (OVCAR-4 ovarian): 34.1 µM | TGI (OVCAR-5 ovarian): > 100 µM | TGI (OVCAR-8 ovarian): 49 µM | TGI (PC-3 prostate): 34.6 µM | TGI (RPMI-8226 leukemia): 64.2 µM | TGI (RXF 393 renal): 33.5 µM | TGI (SF-268 CNS): 39.3 µM | TGI (SF-295 CNS): > 100 µM | TGI (SF-539 CNS): 35.5 µM | TGI (SK-MEL-2 melanoma): 42.2 µM | TGI (SK-MEL-28 melanoma): 38.5 µM | TGI (SK-MEL-5 melanoma): 36.5 µM | TGI (SK-OV-3 ovarian): > 100 µM | TGI (SN12C renal): 28.5 µM | TGI (SNB-19 CNS): > 100 µM | TGI (SNB-75 CNS): 98.5 µM | TGI (SR leukemia): > 100 µM | TGI (SW-620 colon): 48.6 µM | TGI (T-47D breast): 39.8 µM | TGI (TK-10 renal): 32 µM | TGI (U251 CNS): 36.1 µM | TGI (UACC-257 melanoma): 30.1 µM | TGI (UACC-62 melanoma): 35.1 µM | TGI (UO-31 renal): 45.1 µM
